For one data set, the system named is Meth A fibrosarcoma. The data set is described as follows: Pharmacological Test 1 (anti-cancer activity): tumor weight ratio T/C of subcutaneously transplanted tumor. The format is in vivo, mice. The note with it: Mus musculus, 336 h.
Data set [1] in a line: Pharmacological Test 1: body weight change of the tumor-bearing mice. The following applies: day 1 - day 7, female CDF1 mice with Meth A fibrosarcoma.
Description: (§1) Female CDF₁ mice of 6 weeks old were used. As the tumor, Meth A fibrosarcoma was used.
(§2) To the right abdomen of each mouse, 2 x 10⁶ tumor cells were subcutaneously transplanted. On the next day (day 1), the mice were randomly grouped and the suspension was compulsively administered to the mice by using an oral sound for successive 7 days (day 1 - day 7).
The subject of another data set is adenocarcinoma-755. The following applies: experimental model tumor; Cancer Research, Vol. 24, p.1979, 1964; cited from earlier work.
The conditions of data set [2]: cited from earlier work.
In a further data set the test system is L1210 leukemia. The note with it: experimental model tumor; Cancer Research, Vol. 24, p.1979, 1964; cited from earlier work.
The mark [3] stands for this setting: po, read-out: Tumor Weight Ratio (T/C : %).

Protocol for Meth A fibrosarcoma: as §1, §2
On day 14, the tumors were removed and weighed. The tumor growth ratio (%) was calculated according to the following equation: Tumor Growth Ratio (%) = T/C x 100 [formula] wherein T means the average weight of tumor of the treated group and C means the average weight of tumor of the control group.

Consider `C#CCO[C@H]1C[C@H](n2cc(C(F)(F)F)c(=O)[nH]c2=O)O[C@@H]1CO[Si](C)(C)C(C)(C)C` [Example 1, 5'-O-(t-butyldimethylsilyl)-3'-O-propargyl-α,α,α-trifluorothymidine], for which, in the data set on Meth A fibrosarcoma (setting [3]), the response vs control in vivo at 13.4 mg/kg was found to be 67% and the response vs control in vivo at 53.7 mg/kg is 33%. For the same compound, the “Body Weight Change” value in data set [1] (13.4 mg/kg oral) is -0.3 g. In data set [1] (53.7 mg/kg oral), the “Body Weight Change” value is -4.9 g.

`C#CCO[C@H]1C[C@H](n2cc(C(F)(F)F)c(=O)[nH]c2=O)O[C@@H]1CO` [Example 2, 3'-O-propargyl-α,α,α-trifluorothymidine]: the response vs control in vivo at 17.3 mg/kg in the data set on Meth A fibrosarcoma (17.3 mg/kg oral, day 1 - day 7, tumors weighed on day 14) was 16.6%. The response vs control in vivo at 51.9 mg/kg in the data set with Meth A fibrosarcoma (51.9 mg/kg oral, day 1 - day 7, tumors weighed on day 14) stood at 7.7%. The “Body Weight Change” value is -0.5 g in data set [1] (17.3 mg/kg oral) and -4.9 g in data set [1] (51.9 mg/kg oral).

As for `C#CCO[C@H]1C[C@H](n2cc(C(F)(F)F)c(=O)n(C(=O)c3ccc(OC)cc3)c2=O)O[C@@H]1CO` [Example 45], the response vs control in vivo at 28 mg/kg in the data set with Meth A fibrosarcoma (28.0 mg/kg oral, day 1 - day 7, tumors weighed on day 14) turned out to be 64.6%. Besides, in the data set with Meth A fibrosarcoma (84.1 mg/kg oral, day 1 - day 7, tumors weighed on day 14), the response vs control in vivo at 84.1 mg/kg came out at 6.9%. The “Body Weight Change” value is on record as 1.3 g in data set [1] (28.0 mg/kg oral) and -4.5 g in data set [1] (84.1 mg/kg oral).

Consider `C#CCO[C@H]1C[C@H](n2cc(C(F)(F)F)c(=O)n(C(=O)c3ccccc3)c2=O)O[C@@H]1CO` [Example 6, 3-benzoyl-3'-O-propargyl-α,α,α-trifluorothymidine], for which, in the data set on Meth A fibrosarcoma (22.7 mg/kg oral, day 1 - day 7, tumors weighed on day 14), the response vs control in vivo at 22.7 mg/kg stood at 28.3%. The response vs control in vivo at 68.1 mg/kg in the data set on Meth A fibrosarcoma (68.1 mg/kg oral, day 1 - day 7, tumors weighed on day 14) was 2.6%. Further, the entries for the “Body Weight Change” value in data set [1] (22.7 mg/kg oral) and in data set [1] (68.1 mg/kg oral) were -3.8 g and -4.7 g, respectively.

On to `C#CCO[C@H]1C[C@H](n2cc(C(F)(F)F)c(=O)[nH]c2=O)O[C@@H]1CO[Si](CC)(CC)CC` [Example 13, 5'-O-(triethylsilyl)-3'-O-propargyl-α,α,α-trifluorothymidine], for which, in the data set on Meth A fibrosarcoma (setting [3]), the response vs control in vivo at 27 mg/kg turned out to be 57% and the response vs control in vivo at 54 mg/kg came out at 37%. Also, the “Body Weight Change” value in data set [1] (27.0 mg/kg oral) came to 0.8 g. In addition, the “Body Weight Change” value in data set [1] (54.0 mg/kg oral) was -2.9 g.

As to `C#CCO[C@H]1C[C@H](n2cc(C(F)(F)F)c(=O)n(C(=O)c3ccco3)c2=O)O[C@@H]1CO` [Example 47], the response vs control in vivo at 25.6 mg/kg in the data set with Meth A fibrosarcoma (25.6 mg/kg oral, day 1 - day 7, tumors weighed on day 14) was 90.3%. In addition, the response vs control in vivo at 76.9 mg/kg with Meth A fibrosarcoma (76.9 mg/kg oral, day 1 - day 7, tumors weighed on day 14) was found to be 21.7%. Also, the “Body Weight Change” value in data set [1] (25.6 mg/kg oral) is 0.7 g; in data set [1] (76.9 mg/kg oral), -4.4 g.

As to `O=c1[nH]c(=O)n([C@H]2C[C@H](O)[C@@H](CO)O2)cc1C(F)(F)F` [Example F3Thd, Trifluorothymidine], the anti-tumor activity entry in the data set with adenocarcinoma-755 and in the data set with L1210 leukemia was “excellent anti-tumor activity” in each case. Moreover, in data set [2] (in vivo), the “metabolism in the body” value is given as “rapidly metabolized in the body”. The “absorption when administered orally” value in data set [2] (oral administration) was “not well absorbed when administered orally”.

`C#CCO[C@H]1C[C@H](n2cc(C(F)(F)F)c(=O)[nH]c2=O)O[C@@H]1COC(=O)[C@@H]1CCCN1CCCCCCCCCCCC.Cl` [Example 14, 5'-O-(N-dodecyl-L-prolyl)-3'-O-propargyl-α,α,α-trifluorothymidine hydrochloride]: the response vs control in vivo at 38 mg/kg in the data set on Meth A fibrosarcoma (38.0 mg/kg oral, day 1 - day 7, tumors weighed on day 14) came to 32%. Moreover, the response vs control in vivo at 76 mg/kg in the data set on Meth A fibrosarcoma (76.0 mg/kg oral, day 1 - day 7, tumors weighed on day 14) stood at 15%. Besides, the “Body Weight Change” value in data set [1] (38.0 mg/kg oral) was -0.2 g; in data set [1] (76.0 mg/kg oral), -4.7 g.

Regarding `C#CCO[C@H]1C[C@H](n2cc(C(F)(F)F)c(=O)[nH]c2=O)O[C@@H]1COC(=O)CN1CCN(CCCCCCCCC)CC1.Cl.Cl` [Example 11, 5'-O-{2-(4-nonylpiperazin-1-yl)acetyl}-3'-O-propargyl-α,α,α-trifluorothymidine dihydrochloride], the response vs control in vivo at 37 mg/kg in the data set with Meth A fibrosarcoma (37.0 mg/kg oral, day 1 - day 7, tumors weighed on day 14) was 58%. The response vs control in vivo at 75 mg/kg in the data set on Meth A fibrosarcoma (75.0 mg/kg oral, day 1 - day 7, tumors weighed on day 14) came to 31%. In addition, the figures for the “Body Weight Change” value in data set [1] (37.0 mg/kg oral) and in data set [1] (75.0 mg/kg oral) were 0.6 g and -2.7 g, respectively.

In the case of `C#CCO[C@H]1C[C@H](n2cc(C(F)(F)F)c(=O)[nH]c2=O)O[C@@H]1COC(=O)CCCCCCCCCCCCCCCCC` [Example 29], the response vs control in vivo at 18 mg/kg in the data set with Meth A fibrosarcoma (18.0 mg/kg oral, day 1 - day 7, tumors weighed on day 14) turned out to be 52%. Besides, in the data set on Meth A fibrosarcoma (71.9 mg/kg oral, day 1 - day 7, tumors weighed on day 14), the response vs control in vivo at 71.9 mg/kg turned out to be 21%. Moreover, the “Body Weight Change” value in data set [1] (18.0 mg/kg oral) was -1.2 g; in data set [1] (71.9 mg/kg oral), -6.9 g.

For the compound `C#CCO[C@H]1C[C@H](n2cc(C(F)(F)F)c(=O)[nH]c2=O)O[C@@H]1CO[Si](C)(C)C(C)C` [Example 7, 5'-O-isopropyldimethylsilyl-3'-O-propargyl-α,α,α-trifluorothymidine], in the data set on Meth A fibrosarcoma (setting [3]), the response vs control in vivo at 26 mg/kg amounted to 38% and the response vs control in vivo at 52 mg/kg was determined as 25%. In addition, the “Body Weight Change” value in data set [1] (26.0 mg/kg oral) was -0.2 g. In addition, in data set [1] (52.0 mg/kg oral), the “Body Weight Change” value was -4.0 g.

Values taken from patent EP0517262A1, “Trifluorothymidine derivatives, process for producing the same and anti-cancer agent containing the same” (priority 1991, dated 1992).
